From patent US20130337014A1 (priority 2008, published 2013)

System: Clostridium perfringens
Format: in vivo, broiler chickens (Cobb X Cobb)
Conditions: CP challenged

For `CC[C@@H](C(=O)[C@@H](C)[C@@H](O)[C@H](C)[C@@H]1O[C@@H]([C@@H](CC)C(=O)O)CC[C@@H]1C)[C@H]1O[C@]2(C=C[C@@H](O)[C@]3(CC[C@@](C)([C@H]4CC[C@](O)(CC)[C@H](C)O4)O3)O2)[C@H](C)C[C@@H]1C` [S, salinomycin], the “Necrotic Enteritis Lesion Score” value (Day 22, 0 to 3 score) was 0.10, the “Average Weight Gain (kg) Days 0 to 21” value (Days 0 to 21) was “.592 kg” and the “Feed Conversion Ratio (feed to gain ratio) Days 0 to 21” value (Days 0 to 21) was 1.550. The “Feed Conversion Ratio (feed to gain ratio) Days 0 to 42” value (Days 0 to 42) was 1.914, the “Mortality (%) All Causes Days 0 to 42” value (Days 0 to 42) was 4.67% and the “Mortality (%) Necrotic Enteritis Days 0 to 42” value (Days 0 to 42) was 1.33%. The “Feed Conversion Ratio (feed to gain ratio) Days 21 to 42” value (Days 21 to 42) was 2.126.
